From patent publication US20260159525A1, “TRICYCLIC HETEROCYCLES” (Merck Patent GmbH, priority 2021, published 2026) come the findings set out here.

Each structure is given as a SMILES string.

For orientation: IC50 means the concentration at which inhibition is half-maximal. A higher IC50 goes with lower potency.

One assay has as its system YAP-TEAD interaction. Description: SK-HEP-1 reporter assay (8x TEAD responsive elements driving NanoLuc luciferase). Type of assay: cell-based. As to conditions: Homo sapiens, SK-HEP1, SK-HEP-1 cells, 24 hour incubation, group symbols. Here is the method:
To identify inhibitors of YAP-TEAD interaction, 8× TEAD responsive elements driving the NanoLuc® luciferase gene were stably integrated into SK-HEP-1 cells (ECACC #: 91091816).
For the assay, cells were treated in duplicates with the test compounds in a 10-point dose, with the top concentration starting at 30 μM (final concentration in assay). After a 24 hour incubation at 37° C., 95% rH, and 5% CO2, a luciferase substrate/lysis reagent mix (NanoGlo™, Promega) was added to the cells, allowing the quantification of cellular luciferase activity.
Cell Media: The cells were cultured in the following media: MEM, +10% FBS, +1× GlutaMAX, +1 mM Sodium-Pyruvate, +100 μM Non-essential amino acids, +0.1 mg/ml Hygromycin. The media used for the assay was: MEM (w/o Phenol Red), +10% FBS, +1× GlutaMAX, +1 mM Sodium-Pyruvate, +100 μM Non-essential amino acids, +0.5% Pen/Strep
Reagents: The reagents used are listed below:
Cell culture: The cells were examined using an inverted microscope to check for health and cell density. To dissociate adherent cells, the monolayer of cells was washed once with pre-warmed PBS. After removing the PBS, 3 ml pre-warmed Accutase® was added to a F75 flask, dispersed evenly and the flask was allowed to sit in incubator for ˜4-5 minutes.
When a single cell suspension was obtained, 7 ml of prewarmed growth media was added and resuspended with the cells. The cell suspension was transferred to a sterile 15 ml conical centrifuge tube, and spun for 5 min at 300×g, RT. The supernatant was discarded and the pellet was resuspended in 10 ml of pre-warmed growth media.
The total cell count was determined, and 20 μl of the desired cell number was added to each well of a 384 well plate using a Multidrop Combi. The plates were then incubated for 24 hours at 37° C., 95% rH, and 5% CO2.
Compound treatment: 24 hours after seeding, the cells were treated with compounds.
A 1:333 dilution of compounds, diluted in DMSO, was made to get a final concentration of 0.3% DMSO per well. To transfer the compounds to the assay plate, 120 nl was shot from Labcyte low dead volume plates to the cell plates containing 20 μl media/well with the ECHO 555 liquid handling system. After treatment, the cells were fed with 20 μl fresh pre-warmed assay media using a Multidrop combi.
The assay plates were then incubated for another 24 h at 37° C., 95% rH, and 5% CO2.
Luciferase readout: 24 h after treatment, the plates were taken out of the incubator and were allowed to equilibrate to RT. 30 μl of NanoGlo® reagent was added to the plates in the dark. Plates were shaken for 20 min on a Teleshake (˜1500 rpm) in the dark. The luminescence was then measured using an EnVision microplate reader. The IC50 values were generated using Genedata Screener®.
A general note: A reporter such as luciferase makes a cellular process visible.
Turning to `CC[C@@H](O)CNC(=O)c1cc2c3cn(C)nc3n(-c3ccc(C(F)(F)F)cc3)c2s1` [Compound 82, N-[(2R)-2-hydroxybutyl]-4-methyl-7-[4-(trifluoromethyl)phenyl]-9-thia-4,5,7-triazatricyclo[6.3.0.0^2,6]undeca-1(8),2,5,10-tetraene-10-carboxamide], the 50% inhibitory concentration (IC50) was 100 to 10000 nM. On to `CC[C@H](O)CNC(=O)c1cc2c3cn(C)nc3n(-c3ccc(C(F)(F)F)cc3)c2s1` [Compound 83, N-[(2S)-2-hydroxybutyl]-4-methyl-7-[4-(trifluoromethyl)phenyl]-9-thia-4,5,7-triazatricyclo[6.3.0.0^2,6]undeca-1(8),2,5,10-tetraene-10-carboxamide], for which the IC50 is 100 to 10000 nM. `C[C@H](CO)NC(=O)c1cc2c3cn(C)nc3n(-c3ccc(SC(F)(F)F)cc3)c2s1` [Compound 84, N-[(2R)-1-hydroxypropan-2-yl]-4-methyl-7-{4-[(trifluoromethyl)sulfanyl]phenyl}-9-thia-4,5,7-triazatricyclo[6.3.0.0^2,6]undeca-1(8),2,5,10-tetraene-10-carboxamide] had an IC50 of 10 to 100 nM. Consider `CNC(=O)c1cc2c3cn(C)nc3n(-c3ccc(SC(F)(F)F)cc3)c2s1` [Compound 85, N,4-dimethyl-7-{4-[(trifluoromethyl)sulfanyl]phenyl}-9-thia-4,5,7-triazatricyclo[6.3.0.0^2,6]undeca-1(8),2,5,10-tetraene-10-carboxamide], for which the IC50 was 10 to 100 nM. In the case of `Cn1cc2c3cc(C#N)sc3n(-c3ccc(C(F)(F)F)cc3)c2n1` [Compound 94, 4-methyl-7-[4-(trifluoromethyl)phenyl]-9-thia-4,5,7-triazatricyclo[6.3.0.0^2,6]undeca-1(8),2,5,10-tetraene-10-carbonitrile], the IC50 fell in the range of 100 to 10000 nM.

With `Cn1cc2c3cc(C(=O)O)sc3n(-c3ccc(S(F)(F)(F)(F)F)cc3)c2n1` [Compound 98, 4-methyl-7-[4-(pentafluoro-lambda6-sulfanyl)phenyl]-9-thia-4,5,7-triazatricyclo[6.3.0.0^2,6]undeca-1(8),2,5,10-tetraene-10-carboxylic acid], the IC50 fell in the range of 100 to 10000 nM. `Cn1cc2c3cc(C(=O)N[C@@H](CO)c4ccccn4)sc3n(-c3ccc(C(F)F)cc3)c2n1` [Compound 101, 7-[4-(difluoromethyl)phenyl]-N-[(1R)-2-hydroxy-1-(pyridin-2-yl)ethyl]-4-methyl-9-thia-4,5,7-triazatricyclo[6.3.0.0^2,6]undeca-1(8),2,5,10-tetraene-10-carboxamide] displayed an IC50 of 100 to 10000 nM. Molecule `Cn1nc2c3cc(C(=O)N4CC[C@H](O)C4)sc3n(-c3ccc(C(F)(F)F)cc3)c2n1` [Compound 103, (3S)-1-{4-methyl-7-[4-(trifluoromethyl)phenyl]-9-thia-3,4,5,7-tetraazatricyclo[6.3.0.0^2,6]undeca-1(8),2,5,10-tetraene-10-carbonyl}pyrrolidin-3-ol] gave an IC50 of 100 to 10000 nM. `Cn1nc2c3cc(C(=O)N[C@@H](CO)c4ccccn4)sc3n(-c3ccc(C(F)(F)F)cc3)c2n1` [Compound 104, N-[(1R)-2-hydroxy-1-(pyridin-2-yl)ethyl]-4-methyl-7-[4-(trifluoromethyl)phenyl]-9-thia-3,4,5,7-tetraazatricyclo[6.3.0.0^2,6]undeca-1(8),2,5,10-tetraene-10-carboxamide] showed an IC50 of 100 to 10000 nM.

`C[C@H](CO)NC(=O)c1cc2c3nn(C)nc3n(-c3ccc(C(F)(F)F)cc3)c2s1` [Compound 106, N-[(2R)-1-hydroxypropan-2-yl]-4-methyl-7-[4-(trifluoromethyl)phenyl]-9-thia-3,4,5,7-tetraazatricyclo[6.3.0.0^2,6]undeca-1(8),2,5,10-tetraene-10-carboxamide] displayed an IC50 of 100 to 10000 nM. In turn, `C[C@H](CO)NC(=O)c1cc2c3cn(C)nc3n(-c3ccc(C(F)F)cc3)c2s1` [Compound 107, 7-[4-(difluoromethyl)phenyl]-N-[(2R)-1-hydroxypropan-2-yl]-4-methyl-9-thia-4,5,7-triazatricyclo[6.3.0.0^2,6]undeca-1(8),2,5,10-tetraene-10-carboxamide] displayed an IC50 of 100 to 10000 nM.

Regarding `Cn1nc2c3cc(C(=O)N4CC[C@@H](O)C4)sc3n(-c3ccc(C(F)(F)F)cc3)c2n1` [Compound 108, (3R)-1-{4-methyl-7-[4-(trifluoromethyl)phenyl]-9-thia-3,4,5,7-tetraazatricyclo[6.3.0.0^2,6]undeca-1(8),2,5,10-tetraene-10-carbonyl}pyrrolidin-3-ol], the IC50 is over 10000 nM. As for `Cn1nc2c3cc(C(=O)N[C@H](CO)c4ccccn4)sc3n(-c3ccc(C(F)(F)F)cc3)c2n1` [Compound 109, N-[(1S)-2-hydroxy-1-(pyridin-2-yl)ethyl]-4-methyl-7-[4-(trifluoromethyl)phenyl]-9-thia-3,4,5,7-tetraazatricyclo[6.3.0.0^2,6]undeca-1(8),2,5,10-tetraene-10-carboxamide], the IC50 fell in the range of 100 to 10000 nM. For `COCC(CO)NC(=O)c1cc2c3cn(C)nc3n(-c3ccc(C(F)(F)F)cc3)c2s1` (stereo not shown) [Compound 111, N-(1-hydroxy-3-methoxypropan-2-yl)-4-methyl-7-[4-(trifluoromethyl)phenyl]-9-thia-4,5,7-triazatricyclo[6.3.0.0^2,6]undeca-1(8),2,5,10-tetraene-10-carboxamide], the IC50 lay in the range of 100 to 10000 nM.

The assay is the same for the next values; noted with them: Homo sapiens, SK-HEP1, SK-HEP-1 cells, 24 hour incubation, number, or n.d. (x) = not detectable below threshold x.
`C[C@H](CO)NC(=O)c1cc2c3cn(C)nc3n(-c3ccc(C(F)(F)F)nc3)c2s1` [Compound 86, N-[(2R)-1-hydroxypropan-2-yl]-4-methyl-7-[6-(trifluoromethyl)pyridin-3-yl]-9-thia-4,5,7-triazatricyclo[6.3.0.0^2,6]undeca-1(8),2,5,10-tetraene-10-carboxamide] had an IC50 of over 30000 nM. In the case of `CNC(=O)c1cc2c3cn(C)nc3n(-c3ccc(C(F)(F)F)nc3)c2s1` [Compound 87, N,4-dimethyl-7-[6-(trifluoromethyl)pyridin-3-yl]-9-thia-4,5,7-triazatricyclo[6.3.0.0^2,6]undeca-1(8),2,5,10-tetraene-10-carboxamide], the IC50 was over 30000 nM. The molecule `Cn1cc2c3cc(C(N)=O)sc3n(-c3ccc(C(F)(F)F)cc3)c2n1` [Compound 89, 4-methyl-7-[4-(trifluoromethyl)phenyl]-9-thia-4,5,7-triazatricyclo[6.3.0.0^2,6]undeca-1(8),2,5,10-tetraene-10-carboxamide] gave an IC50 of 980 nM.

For the molecule `C[C@@H](CO)NC(=O)c1cc2c3nn(C)nc3n(-c3ccc(C(F)(F)F)cc3)c2s1` [Compound 110, N-[(2S)-1-hydroxypropan-2-yl]-4-methyl-7-[4-(trifluoromethyl)phenyl]-9-thia-3,4,5,7-tetraazatricyclo[6.3.0.0^2,6]undeca-1(8),2,5,10-tetraene-10-carboxamide], the IC50 is over 30000 nM. With `Cn1cc2c3cc(C(=O)NC(CO)CO)sc3n(-c3ccc(C(F)(F)F)cc3)c2n1` [Compound 112, N-(1,3-dihydroxypropan-2-yl)-4-methyl-7-[4-(trifluoromethyl)phenyl]-9-thia-4,5,7-triazatricyclo[6.3.0.0^2,6]undeca-1(8),2,5,10-tetraene-10-carboxamide], the IC50 is over 9500 nM. Still for that read-out and setting: the value for `Cn1cc2c3cc(C(=O)N[C@@H](CO)c4ccccn4)sc3n(-c3ccc(C(F)(F)F)cn3)c2n1` [Compound 113, N-[(1R)-2-hydroxy-1-(pyridin-2-yl)ethyl]-4-methyl-7-[5-(trifluoromethyl)pyridin-2-yl]-9-thia-4,5,7-triazatricyclo[6.3.0.0^2,6]undeca-1(8),2,5,10-tetraene-10-carboxamide] was over 9500 nM; that for `CC[C@H](CO)NC(=O)c1cc2c3cn(C)nc3n(-c3ccc(C(F)(F)F)cn3)c2s1` [Compound 114, N-[(2R)-1-hydroxybutan-2-yl]-4-methyl-7-[5-(trifluoromethyl)pyridin-2-yl]-9-thia-4,5,7-triazatricyclo[6.3.0.0^2,6]undeca-1(8),2,5,10-tetraene-10-carboxamide] was over 3000 nM. In turn, `Cn1cc2c3cc(C(=O)NCC(O)CO)sc3n(-c3ccc(C(F)(F)F)cn3)c2n1` (stereo not shown) [Compound 115, N-(2,3-dihydroxypropyl)-4-methyl-7-[5-(trifluoromethyl)pyridin-2-yl]-9-thia-4,5,7-triazatricyclo[6.3.0.0^2,6]undeca-1(8),2,5,10-tetraene-10-carboxamide] gave an IC50 of over 300 nM.
